Measured values from the supplement of paper PMC13380429.
Counter-ions that a name gives are not always drawn.

Columns and labels:
Settings in all cases: 72 h
Caco-2 [1] = assay: cell viability relative to DMSO; higher = less toxic
Calu-3 [2] = assay: as above
HepG2 [3] = assay: as above
U2OS [4] = assay: as above
Vero E6 [5] = assay: as above
Caco-2 [6] = assay: relative viability EC50 (midpoint between 100% and the lowest measured viability); higher = less toxic
Calu-3 [7] = assay: as above
HepG2 [8] = assay: as above
U2OS [9] = assay: as above
Vero E6 [10] = assay: as above
Caco-2 [11] = assay: drug sensitivity score (DSS) for viability; higher = more toxic; extreme values may be limits of the assay
Calu-3 [12] = assay: as above
HepG2 [13] = assay: as above
U2OS [14] = assay: as above
Vero E6 [15] = assay: as above

Structure (SMILES) | cell viability (Caco-2 [1]; 1 nM) | cell viability (Caco-2 [1]; 10 nM) | cell viability (Caco-2 [1]; 100 nM) | cell viability (Caco-2 [1]; 1000 nM) | cell viability (Caco-2 [1]; 10000 nM) | cell viability (Calu-3 [2]; 1 nM) | cell viability (Calu-3 [2]; 10 nM) | cell viability (Calu-3 [2]; 100 nM) | cell viability (Calu-3 [2]; 1000 nM) | cell viability (Calu-3 [2]; 10000 nM) | cell viability (HepG2 [3]; 1 nM) | cell viability (HepG2 [3]; 10 nM) | cell viability (HepG2 [3]; 100 nM) | cell viability (HepG2 [3]; 1000 nM) | cell viability (HepG2 [3]; 10000 nM) | cell viability (U2OS [4]; 1 nM) | cell viability (U2OS [4]; 10 nM) | cell viability (U2OS [4]; 100 nM) | cell viability (U2OS [4]; 1000 nM) | cell viability (U2OS [4]; 10000 nM) | cell viability (Vero E6 [5]; 1 nM) | cell viability (Vero E6 [5]; 10 nM) | cell viability (Vero E6 [5]; 100 nM) | cell viability (Vero E6 [5]; 1000 nM) | cell viability (Vero E6 [5]; 10000 nM) | relative viability EC50 (Caco-2 [6]) | relative viability EC50 (Calu-3 [7]) | relative viability EC50 (HepG2 [8]) | relative viability EC50 (U2OS [9]) | relative viability EC50 (Vero E6 [10]) | drug sensitivity score (Caco-2 [11]) | drug sensitivity score (Calu-3 [12]) | drug sensitivity score (HepG2 [13]) | drug sensitivity score (U2OS [14]) | drug sensitivity score (Vero E6 [15])
CN(C)CC(=O)Nc1ccc2[nH]c(=O)c3ccccc3c2c1 [PJ-34] | 91.5% | 101% | 99.3% | 97.2% | 104% | 95.5% | 100% | 96.2% | 104% | 98.5% | 97.5% | 99.3% | 97.8% | 103% | 98.6% | 92.2% | 102% | 94% | 94.6% | 95.6% | 96.7% | 93.2% | 101% | 100% | 102% | > 10 µM | > 10 µM | > 10 µM | > 10 µM | > 10 µM | 0 | 0 | 0 | 0 | 0
CCC(C)SSc1ncc[nH]1 (stereo not given) [PX-12] | 90.8% | 100% | 102% | 93.1% | 97.7% | 106% | 98% | 110% | 84% | 104% | 99.3% | 104% | 104% | 98.3% | 89.8% | 98% | 96.4% | 103% | 97.5% | 84.1% | 96.7% | 97.8% | 103% | 97.5% | 99.8% | > 10 µM | > 10 µM | > 10 µM | > 10 µM | > 10 µM | 0 | 0 | 0 | 0.6 | 0
Cc1cc2nc3c(=O)[nH]c(=O)nc-3n(C)c2cc1C=O [Ro-08-2750] | 92.4% | 90% | 96.4% | 90.2% | 40% | 104% | 103% | 96% | 102% | 81.9% | 109% | 105% | 100% | 109% | 37.1% | 94.4% | 99.2% | 94.1% | 97.8% | 5.6% | 96.6% | 94.3% | 97.6% | 92.5% | 101% | 1.91 µM | > 10 µM | 3.78 µM | 3 µM | > 10 µM | 4.9 | 0.4 | 2.9 | 5.5 | 0
CCCCc1nc2cc(/C=C/C(=O)NO)ccc2n1CCN(CC)CC [SB-939] | 98% | 97.4% | 98% | 37.6% | 0.6% | 95.4% | 89.6% | 65.5% | 30.7% | 7.8% | 99.3% | 109% | 89% | 15.7% | 0% | 101% | 105% | 83.9% | 27.9% | 1.1% | 107% | 99.1% | 95.5% | 13.4% | -0.1% | 0.766 µM | 0.195 µM | 0.362 µM | 0.425 µM | 0.417 µM | 12.9 | 17.6 | 16.8 | 15.5 | 16.3
Nc1nc2c(ccc3ccccc32)s1 [SKA-31] | 99.6% | 104% | 97.5% | 106% | 93.9% | 98.3% | 103% | 101% | 103% | 96.7% | 118% | 109% | 114% | 110% | 99.1% | 100% | 103% | 101% | 102% | 98.9% | 102% | 100% | 103% | 100% | 97.8% | > 10 µM | > 10 µM | > 10 µM | > 10 µM | > 10 µM | 0 | 0 | 0 | 0 | 0
CC1CCN(C(c2ccc(F)cc2)c2ccc(C(C)C(=O)O)cc2-c2ccc(C(F)(F)F)cc2)CC1 (stereo not given) [TC-E-5006] | 105% | 99.5% | 96.2% | 89% | 90.1% | 104% | 92.3% | 94.9% | 96.2% | 103% | 97.5% | 103% | 99% | 101% | 81.6% | 102% | 97.9% | 101% | 96.5% | 93.2% | 97.4% | 104% | 95.4% | 99.2% | 100% | > 10 µM | > 10 µM | > 10 µM | > 10 µM | > 10 µM | 0.3 | 0 | 0.4 | 0 | 0
COc1cccc(C2(O)CCCCC2CN(C)C)c1 (stereo not given) [TRAMADOL HYDROCHLORIDE] | 93.9% | 100% | 96.2% | 95.2% | 98.3% | 106% | 98.2% | 115% | 101% | 96.2% | 93.5% | 96.8% | 97.4% | 89.8% | 106% | 103% | 105% | 97.5% | 99.3% | 99.9% | 101% | 103% | 101% | 97.4% | 101% | > 10 µM | > 10 µM | > 10 µM | > 10 µM | > 10 µM | 0 | 0 | 0 | 0 | 0
Nc1cccc(-c2cc3c(Oc4cccc(O)c4)ncnc3[nH]2)c1 [TWS-119] | 99.3% | 99.4% | 98.2% | 89.5% | 40.4% | 108% | 97.8% | 86.2% | 96.4% | 25.7% | 113% | 107% | 128% | 104% | 90.1% | 103% | 108% | 102% | 96.6% | 25.2% | 110% | 101% | 101% | 82.2% | 24.9% | 1.85 µM | 2.79 µM | > 10 µM | 2.82 µM | 1.59 µM | 5 | 4.6 | 0 | 4.6 | 7
N#C/C(=C\c1cn(-c2ccccc2)c2ccccc12)C(=O)O [UK-5099] | 98.1% | 106% | 100% | 94% | 104% | 106% | 90.1% | 106% | 93.1% | 106% | 105% | 101% | 101% | 97% | 95.7% | 98.5% | 98.8% | 95.4% | 103% | 106% | 98.1% | 102% | 99.7% | 99.8% | 101% | > 10 µM | > 10 µM | > 10 µM | > 10 µM | > 10 µM | 0 | 0 | 0 | 0 | 0
CCC(=O)Nc1cccc(Oc2nc(Nc3ccc(N4CCN(C)CC4)cc3OC)ncc2Cl)c1 [WZ4003] | 99.3% | 105% | 102% | 99.5% | 89.3% | 97% | 97.7% | 94.8% | 96.3% | 82.5% | 100% | 94.3% | 102% | 90.9% | 104% | 97.3% | 103% | 103% | 105% | 102% | 101% | 100% | 102% | 96.2% | 98.6% | > 10 µM | > 10 µM | > 10 µM | > 10 µM | > 10 µM | 0 | 0.7 | 0 | 0 | 0
Cc1nc2ccc(Oc3ccc(F)cc3)cc2c(=O)n1C[C@H]1CCCN(C(C)C)C1 [YIL-781] | 102% | 93.5% | 87.2% | 97.5% | 92.6% | 107% | 88.2% | 94.9% | 97.7% | 97.8% | 101% | 100% | 97.4% | 102% | 90.7% | 104% | 97.1% | 98.6% | 94.4% | 94.7% | 93.8% | 98.3% | 96.4% | 94.3% | 88.3% | > 10 µM | > 10 µM | > 10 µM | > 10 µM | > 10 µM | 0 | 0 | 0 | 0 | 0
COCCNC(=O)COc1ccc(OCCNC[C@H](O)COc2ccccc2)cc1 [ZD-7114] | 95.5% | 95.1% | 94.7% | 86.2% | 103% | 99.1% | 97.2% | 106% | 90% | 108% | 100% | 106% | 93.7% | 104% | 97.1% | 98.4% | 94.5% | 104% | 102% | 102% | 103% | 101% | 96.7% | 104% | 96.5% | > 10 µM | > 10 µM | > 10 µM | > 10 µM | > 10 µM | 0 | 0 | 0 | 0 | 0
Nc1ncnc2c1ncn2CCOCP(=O)(O)O [adefovir] | 106% | 100% | 90.2% | 85.7% | 110% | 97.4% | 103% | 104% | 98.2% | 96.2% | 104% | 99.6% | 98.5% | 98.7% | 101% | 90% | 99.1% | 94.1% | 98% | 100% | 109% | 90.7% | 91.2% | 104% | 108% | > 10 µM | > 10 µM | > 10 µM | > 10 µM | > 10 µM | 0 | 0 | 0 | 0 | 0
C[C@@H](N)Cc1c[nH]c2ccc(O)cc12 [alpha-methylserotonin] | 96.1% | 93% | 88% | 92.8% | 101% | 89.6% | 99.1% | 95.3% | 92.9% | 91.1% | 105% | 102% | 100% | 96.9% | 105% | 99% | 102% | 99.8% | 97.4% | 107% | 91.1% | 94.5% | 94.4% | 90.3% | 104% | > 10 µM | > 10 µM | > 10 µM | > 10 µM | > 10 µM | 0 | 0 | 0 | 0 | 0
